This passage reports mass density and Normal melting temperature results from the NIST ThermoML archive (doi:10.1021/acs.jced.8b00015).

Numbers after ± are expanded uncertainties.

Data set [1] is described as follows: xn = mol fraction of the nth substance listed. The settings on record: 298.15 K, 101.3 kPa, Liquid.
The conditions of data set [2]: Crystal; DTA.

With `CN(CCO)CCO` [N-methyldiethanolamine] + C[N+](C)(C)CCO.[Cl-], the mass density came out at 1053.8 ± 21 kg/m3 in data set [1] (Pycnometric method, x2 = 0.125) and 1046.8 ± 21 kg/m3 in data set [1] (Pycnometric method, x2 = 0.143). For `CCCC[N+](CCCC)(CCCC)CCCC.[Br-]` [tetrabutylammonium bromide] + OCCO, the mass density turned out to be 1072.7 ± 22 kg/m3 in data set [1] (Pycnometric method, x1 = 0.2); 1069.8 ± 21 kg/m3 in data set [1] (Pycnometric method, x1 = 0.25); 1065.8 ± 21 kg/m3 in data set [1] (Pycnometric method, x1 = 0.333). Regarding `OCCNCCO` [diethanolamine], the Normal melting temperature in data set [2] is 27.00 ± 0.5 °C. For `C[N+](C)(C)CCO.[Cl-]` [choline chloride] + OCCO, in data set [1] (Vibrating tube method, x1 = 0.333), the mass density is reported as 1116.8 ± 22 kg/m3. On to `CCCC[N+](CCCC)(CCCC)CCCC.[Br-]` [tetrabutylammonium bromide] + OCCOCCO, for which the mass density worked out at 1081.8 ± 22 kg/m3 in data set [1] (Pycnometric method, x1 = 0.2); 1078.2 ± 22 kg/m3 in data set [1] (Pycnometric method, x1 = 0.25); 1075.4 ± 22 kg/m3 in data set [1] (Pycnometric method, x1 = 0.333). `CCCC[N+](CCCC)(CCCC)CCCC.[Br-]` [tetrabutylammonium bromide] + CN(CCO)CCO: the mass density was 1056.9 ± 21 kg/m3 in data set [1] (Pycnometric method, x1 = 0.2) and 1051.3 ± 21 kg/m3 in data set [1] (Pycnometric method, x1 = 0.25). With `C[N+](C)(C)CCO.[Cl-]` [choline chloride] + OCCOCCO, the mass density turned out to be 1112.1 ± 22 kg/m3 in data set [1] (Pycnometric method, x1 = 0.2) and 1116.9 ± 22 kg/m3 in data set [1] (Pycnometric method, x1 = 0.25).

For `OCCNCCO` [diethanolamine] + CCCC[N+](CCCC)(CCCC)CCCC.[Br-], the mass density in data set [1] (Pycnometric method, x2 = 0.143) was 1092.7 ± 22 kg/m3. Same read-out and setting: for `OCCNCCO` [diethanolamine] + C[N+](C)(C)CCO.[Cl-] the value was 1098.4 ± 22 kg/m3.

The mass density is mass per unit of volume.
